Assay in all cases: relative viability (nuclei count vs DMSO), 5 days (fraction); higher = more cells survive
Compound in the test “kb NB 142-70 + Alpelisib”: C1CSC2=C(C(=O)N1)SC3=C2C=C(C=C3)O [kb NB 142-70] + Cc1nc(NC(=O)N2CCC[C@H]2C(N)=O)sc1-c1ccnc(C(C)(C)C(F)(F)F)c1 [Alpelisib] (partner 2 µM)
Summed up: (§1)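 Medians of duplicate plates are given as relative viability. That measure is the nuclei count in treated wells divided by the count in vehicle wells. Counts were taken on 4× images of lung cancer cell lines in 1536-well plates, 5 days after pin-tool dosing the day after seeding with one drug alone or a fixed anchor-drug dose plus five library-drug doses (not always all listed) in √10 steps.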

Compound in test [1]: C1CSC2=C(C(=O)N1)SC3=C2C=C(C=C3)O [kb NB 142-70] + N=C(N)NC(=N)NCCc1ccccc1 [Phenformin] (partner 250 µM)
The method, boiled down:
as §1

Compound in test [2]: C1CSC2=C(C(=O)N1)SC3=C2C=C(C=C3)O [kb NB 142-70] + Nc1ncn([C@H]2C[C@H](O)[C@@H](CO)O2)c(=O)n1 [Decitabine] (partner 2 µM)
Summed up:
as §1

Compound in test [3]: NCC(=O)Nc1ccc(-n2nc(C(F)(F)F)cc2-c2ccc3c(ccc4ccccc43)c2)cc1 + CS(=O)(=O)CCNCc1ccc(-c2ccc3ncnc(Nc4ccc(OCc5cccc(F)c5)c(Cl)c4)c3c2)o1 [Lapatinib] (partner 2 µM)
The method, boiled down: as §1

Compound in test [4]: NCC(=O)Nc1ccc(-n2nc(C(F)(F)F)cc2-c2ccc3c(ccc4ccccc43)c2)cc1 + O=C(CCCCCCC(=O)Nc1ccccc1)NO [Vorinostat] (partner 1 µM)
Summed up:
as §1

As to COR-L 105, the relative viability was found to be 1.11 with kb NB 142-70 + Alpelisib (first compound 0.1 µM); 0.989 with kb NB 142-70 + Alpelisib (first compound 1 µM); 1.03 with kb NB 142-70 + Alpelisib (first compound 3.162 µM); 0.428 in test [1] (first compound 0.1 µM); 0.534 in test [1] (first compound 1 µM); 0.486 in test [1] (first compound 3.162 µM). For the same cell line, the relative viability was found to be 0.68 in test [2] (first compound 0.1 µM); 0.576 in test [2] (first compound 1 µM); 0.589 in test [2] (first compound 3.162 µM); 0.418 in test [3] (first compound 0.02 µM); 0.33 in test [3] (first compound 0.06325 µM); 0.401 in test [3] (first compound 0.2 µM). Also, the relative viability amounted to 0.39 in test [3] (first compound 0.6325 µM); 0.437 in test [3] (first compound 2 µM); 0.873 in test [4] (first compound 0.02 µM); 0.861 in test [4] (first compound 0.06325 µM); 0.724 in test [4] (first compound 0.2 µM); 0.781 in test [4] (first compound 0.6325 µM). For the same cell line, the relative viability in test [4] (first compound 2 µM) was 1.04.

Regarding Calu-6, the relative viability in the test with kb NB 142-70 + Alpelisib (first compound 0.1 µM) was 0.984; with kb NB 142-70 + Alpelisib (first compound 1 µM), 0.867; with kb NB 142-70 + Alpelisib (first compound 3.162 µM), 0.478; in test [3] (first compound 0.02 µM) it was 0.969; in test [3] (first compound 0.06325 µM) it was 1.12; in test [3] (first compound 0.2 µM), 1.19. In addition, the relative viability in test [3] (first compound 0.6325 µM) came to 1.16; in test [3] (first compound 2 µM), 0.963.

On to ChaGo-K-1, for which the relative viability stood at 0.513 in test [1] (first compound 0.1 µM); 0.49 in test [1] (first compound 1 µM); 0.453 in test [1] (first compound 3.162 µM); 0.509 in test [2] (first compound 0.1 µM); 0.515 in test [2] (first compound 1 µM); 0.461 in test [2] (first compound 3.162 µM). Also, the relative viability in test [4] (first compound 0.02 µM) came out at 0.667; in test [4] (first compound 0.06325 µM), 0.794; in test [4] (first compound 0.2 µM), 0.725; in test [4] (first compound 0.6325 µM), 0.725; in test [4] (first compound 2 µM), 0.76.

As to EBC-1, the relative viability stood at 0.864 with kb NB 142-70 + Alpelisib (first compound 0.1 µM); 0.798 with kb NB 142-70 + Alpelisib (first compound 1 µM); 0.491 with kb NB 142-70 + Alpelisib (first compound 3.162 µM); 0.21 in test [3] (first compound 0.02 µM); 0.219 in test [3] (first compound 0.06325 µM); 0.215 in test [3] (first compound 0.2 µM). Further, the relative viability in test [3] (first compound 0.6325 µM) was determined as 0.222; in test [3] (first compound 2 µM), 0.226.

On to EKVX, for which the relative viability with kb NB 142-70 + Alpelisib (first compound 0.1 µM) was 0.854; with kb NB 142-70 + Alpelisib (first compound 1 µM), 0.849; in the test with kb NB 142-70 + Alpelisib (first compound 3.162 µM) it was 0.96; in test [1] (first compound 0.1 µM), 0.24; in test [1] (first compound 1 µM), 0.238; in test [1] (first compound 3.162 µM) it was 0.244. Moreover, the relative viability in test [2] (first compound 0.1 µM) worked out at 0.369; in test [2] (first compound 1 µM) it was 0.311; in test [2] (first compound 3.162 µM), 0.364; in test [3] (first compound 0.02 µM) it was 0.213; in test [3] (first compound 0.06325 µM), 0.216; in test [3] (first compound 0.2 µM), 0.228. The relative viability in test [3] (first compound 0.6325 µM) was 0.223; in test [3] (first compound 2 µM), 0.203; in test [4] (first compound 0.02 µM), 0.726; in test [4] (first compound 0.06325 µM), 0.83; in test [4] (first compound 0.2 µM), 0.751; in test [4] (first compound 0.6325 µM), 0.724. Further, the relative viability in test [4] (first compound 2 µM) stood at 0.731.

EMC-BAC-2: the relative viability was found to be 0.74 with kb NB 142-70 + Alpelisib (first compound 0.1 µM); 0.754 in the test with kb NB 142-70 + Alpelisib (first compound 1 µM); 0.572 in the test with kb NB 142-70 + Alpelisib (first compound 3.162 µM); 0.524 in test [1] (first compound 0.1 µM); 0.501 in test [1] (first compound 1 µM); 0.38 in test [1] (first compound 3.162 µM). The relative viability in test [2] (first compound 0.1 µM) was 1.06; in test [2] (first compound 1 µM), 0.994; in test [2] (first compound 3.162 µM), 1.1; in test [3] (first compound 0.02 µM) it was 0.859; in test [3] (first compound 0.06325 µM), 0.925; in test [3] (first compound 0.2 µM) it was 0.903. Besides, the relative viability is 0.9 in test [3] (first compound 0.6325 µM); 0.891 in test [3] (first compound 2 µM); 0.454 in test [4] (first compound 0.02 µM); 0.511 in test [4] (first compound 0.06325 µM); 0.569 in test [4] (first compound 0.2 µM); 0.514 in test [4] (first compound 0.6325 µM). For the same cell line, the relative viability in test [4] (first compound 2 µM) stood at 0.488.

Take EPLC-272H: the relative viability was determined as 0.906 in the test with kb NB 142-70 + Alpelisib (first compound 0.1 µM); 0.899 in the test with kb NB 142-70 + Alpelisib (first compound 1 µM); 0.509 with kb NB 142-70 + Alpelisib (first compound 3.162 µM); 0.38 in test [1] (first compound 0.1 µM); 0.267 in test [1] (first compound 1 µM); 0.189 in test [1] (first compound 3.162 µM). In addition, the relative viability in test [2] (first compound 0.1 µM) was 0.404; in test [2] (first compound 1 µM) it was 0.303; in test [2] (first compound 3.162 µM) it was 0.303; in test [3] (first compound 0.02 µM), 0.88; in test [3] (first compound 0.06325 µM) it was 1.09; in test [3] (first compound 0.2 µM), 0.85. The relative viability in test [3] (first compound 0.6325 µM) was 0.907; in test [3] (first compound 2 µM), 1.21; in test [4] (first compound 0.02 µM), 0.354; in test [4] (first compound 0.06325 µM), 0.538; in test [4] (first compound 0.2 µM), 0.491; in test [4] (first compound 0.6325 µM) it was 0.573. The relative viability in test [4] (first compound 2 µM) came out at 0.501.

In the case of H3255, the relative viability is 0.621 with kb NB 142-70 + Alpelisib (first compound 0.1 µM); 0.754 with kb NB 142-70 + Alpelisib (first compound 1 µM); 0.768 with kb NB 142-70 + Alpelisib (first compound 3.162 µM); 0.358 in test [1] (first compound 0.1 µM); 0.362 in test [1] (first compound 1 µM); 0.371 in test [1] (first compound 3.162 µM). In addition, the relative viability was determined as 0.623 in test [2] (first compound 0.1 µM); 0.591 in test [2] (first compound 1 µM); 0.629 in test [2] (first compound 3.162 µM); 0.276 in test [3] (first compound 0.02 µM); 0.268 in test [3] (first compound 0.06325 µM); 0.231 in test [3] (first compound 0.2 µM). Also, the relative viability in test [3] (first compound 0.6325 µM) was found to be 0.258; in test [3] (first compound 2 µM), 0.268; in test [4] (first compound 0.02 µM), 0.766; in test [4] (first compound 0.06325 µM) it was 0.84; in test [4] (first compound 0.2 µM) it was 0.872; in test [4] (first compound 0.6325 µM) it was 0.809. The relative viability in test [4] (first compound 2 µM) is 0.722.

In the case of HARA, the relative viability in the test with kb NB 142-70 + Alpelisib (first compound 0.1 µM) is 0.786; in the test with kb NB 142-70 + Alpelisib (first compound 1 µM), 0.726; with kb NB 142-70 + Alpelisib (first compound 3.162 µM) it was 0.516; in test [1] (first compound 0.1 µM) it was 0.486; in test [1] (first compound 1 µM), 0.473; in test [1] (first compound 3.162 µM), 0.344. In addition, the relative viability is 0.538 in test [2] (first compound 0.1 µM); 0.372 in test [2] (first compound 1 µM); 0.286 in test [2] (first compound 3.162 µM); 0.649 in test [3] (first compound 0.02 µM); 0.801 in test [3] (first compound 0.06325 µM); 0.829 in test [3] (first compound 0.2 µM). Also, the relative viability in test [3] (first compound 0.6325 µM) was found to be 0.822; in test [3] (first compound 2 µM) it was 0.989; in test [4] (first compound 0.02 µM) it was 0.552; in test [4] (first compound 0.06325 µM) it was 0.518; in test [4] (first compound 0.2 µM) it was 0.596; in test [4] (first compound 0.6325 µM), 0.578. Moreover, the relative viability in test [4] (first compound 2 µM) was determined as 0.551.

The record behind these values is the supplement of paper PMC10307832.
